From the supplement of paper PMC10307832

Experiments:
Assay in all cases: relative viability (nuclei count vs DMSO), 5 days (fraction); higher = more cells survive
[1] = tested on: LCLC-97TM1
In short: (§1)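 Values are medians from duplicate plates. Each reflects relative viability, defined as the nuclei count of treated wells over that of vehicle wells. Lung cancer cell lines in 1536-well plates were pin-tool dosed one day after seeding with one drug alone or with a fixed anchor-drug dose plus five library-drug doses (not always all listed) in √10 steps, then fixed, stained and imaged at 4× after 5 days.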

[2] = tested on: NCI-H1993
In short: as §1

[3] = tested on: NCI-H1650
In short: as §1

[4] = tested on: LXF-289
In short: as §1

[5] = tested on: NCI-H2228
In short: as §1

[6] = tested on: LK-2
In short: as §1

[7] = tested on: SW 1573
In short: as §1

[8] = tested on: LU99A
In short: as §1

[9] = tested on: NCI-H2405
In short: as §1

[10] = tested on: ChaGo-K-1
In short: as §1

[11] = tested on: HCC-827
In short: as §1

[12] = tested on: H3255
In short: as §1

[13] = tested on: NCI-H3122
In short: as §1

[14] = tested on: EPLC-272H
In short: as §1

[15] = tested on: NCI-H1355
In short: as §1

[16] = tested on: HOP-62
In short: as §1

[17] = tested on: NCI-H441
In short: as §1

[18] = tested on: SK-LU-1
In short: as §1

[19] = tested on: PC-3 [JPC-3]
In short: as §1

[20] = tested on: EKVX
In short: as §1

[21] = tested on: UMC-11
In short: as §1

[22] = tested on: NCI-H2170
In short: as §1

CCNC(=O)c1noc(-c2cc(C(C)C)c(O)cc2O)c1-c1ccc(CN2CCOCC2)cc1 [Luminespib] + COc1cc2c(Oc3ccc(NC(=O)C4(C(=O)Nc5ccc(F)cc5)CC4)cc3F)ccnc2cc1OCCCN1CCOCC1 [Foretinib] (partner 0.25 µM)
relative viability ([1]; first compound 0.002 µM): 0.949 | relative viability ([1]; first compound 0.006325 µM): 0.915 | relative viability ([1]; first compound 0.02 µM): 0.935 | relative viability ([1]; first compound 0.06325 µM): 0.952 | relative viability ([1]; first compound 0.2 µM): 0.626 | relative viability ([2]; first compound 0.002 µM): 0.772 | relative viability ([2]; first compound 0.006325 µM): 0.779 | relative viability ([2]; first compound 0.02 µM): 0.632 | relative viability ([2]; first compound 0.06325 µM): 0.549 | relative viability ([2]; first compound 0.2 µM): 0.482 | relative viability ([3]; first compound 0.002 µM): 1.26 | relative viability ([3]; first compound 0.006325 µM): 1.17 | relative viability ([3]; first compound 0.02 µM): 1.23 | relative viability ([3]; first compound 0.06325 µM): 0.158 | relative viability ([3]; first compound 0.2 µM): 0.164 | relative viability ([4]; first compound 0.002 µM): 0.993 | relative viability ([4]; first compound 0.006325 µM): 0.979 | relative viability ([4]; first compound 0.02 µM): 1.2 | relative viability ([4]; first compound 0.06325 µM): 0.547 | relative viability ([4]; first compound 0.2 µM): 0.323 | relative viability ([5]; first compound 0.002 µM): 0.776 | relative viability ([5]; first compound 0.006325 µM): 0.844 | relative viability ([5]; first compound 0.02 µM): 0.692 | relative viability ([5]; first compound 0.06325 µM): 0.111 | relative viability ([5]; first compound 0.2 µM): 0.117 | relative viability ([6]; first compound 0.002 µM): 1.66 | relative viability ([6]; first compound 0.006325 µM): 1.44 | relative viability ([6]; first compound 0.02 µM): 0.604 | relative viability ([6]; first compound 0.06325 µM): 0.858 | relative viability ([6]; first compound 0.2 µM): 0.88 | relative viability ([7]; first compound 0.002 µM): 0.91 | relative viability ([7]; first compound 0.006325 µM): 0.766 | relative viability ([7]; first compound 0.02 µM): 0.521 | relative viability ([7]; first compound 0.06325 µM): 0.148 | relative viability ([7]; first compound 0.2 µM): 0.119 | relative viability ([8]; first compound 0.002 µM): 0.821 | relative viability ([8]; first compound 0.006325 µM): 0.758 | relative viability ([8]; first compound 0.02 µM): 0.527 | relative viability ([8]; first compound 0.06325 µM): 0.186 | relative viability ([8]; first compound 0.2 µM): 0.175 | relative viability ([9]; first compound 0.002 µM): 1.08 | relative viability ([9]; first compound 0.006325 µM): 0.852 | relative viability ([9]; first compound 0.02 µM): 1 | relative viability ([9]; first compound 0.06325 µM): 0.227 | relative viability ([9]; first compound 0.2 µM): 0.2 | relative viability ([10]; first compound 0.002 µM): 0.889 | relative viability ([10]; first compound 0.006325 µM): 0.92 | relative viability ([10]; first compound 0.02 µM): 1.02 | relative viability ([10]; first compound 0.06325 µM): 0.37 | relative viability ([10]; first compound 0.2 µM): 0.299 | relative viability ([11]; first compound 0.002 µM): 1.06 | relative viability ([11]; first compound 0.006325 µM): 0.971 | relative viability ([11]; first compound 0.02 µM): 0.869 | relative viability ([11]; first compound 0.06325 µM): 0.692 | relative viability ([11]; first compound 0.2 µM): 0.152 | relative viability ([12]; first compound 0.002 µM): 0.785 | relative viability ([12]; first compound 0.006325 µM): 0.821 | relative viability ([12]; first compound 0.06325 µM): 0.833 | relative viability ([12]; first compound 0.2 µM): 0.329 | relative viability ([13]; first compound 0.002 µM): 1.07 | relative viability ([13]; first compound 0.006325 µM): 0.887 | relative viability ([13]; first compound 0.02 µM): 0.925 | relative viability ([13]; first compound 0.06325 µM): 0.0893 | relative viability ([13]; first compound 0.2 µM): 0.0769 | relative viability ([14]; first compound 0.002 µM): 0.74 | relative viability ([14]; first compound 0.006325 µM): 0.666 | relative viability ([14]; first compound 0.06325 µM): 0.625 | relative viability ([14]; first compound 0.2 µM): 0.0989 | relative viability ([15]; first compound 0.002 µM): 1.02 | relative viability ([15]; first compound 0.006325 µM): 0.912 | relative viability ([15]; first compound 0.02 µM): 0.671 | relative viability ([15]; first compound 0.06325 µM): 0.927 | relative viability ([15]; first compound 0.2 µM): 0.622 | relative viability ([16]; first compound 0.002 µM): 1.09 | relative viability ([16]; first compound 0.006325 µM): 1.11 | relative viability ([16]; first compound 0.02 µM): 1.17 | relative viability ([16]; first compound 0.06325 µM): 0.587 | relative viability ([16]; first compound 0.2 µM): 0.145 | relative viability ([17]; first compound 0.002 µM): 0.927 | relative viability ([17]; first compound 0.006325 µM): 0.92 | relative viability ([17]; first compound 0.02 µM): 1.51 | relative viability ([17]; first compound 0.06325 µM): 0.196 | relative viability ([17]; first compound 0.2 µM): 0.149 | relative viability ([18]; first compound 0.002 µM): 0.825 | relative viability ([18]; first compound 0.006325 µM): 0.559 | relative viability ([18]; first compound 0.02 µM): 0.392 | relative viability ([18]; first compound 0.06325 µM): 0.131 | relative viability ([18]; first compound 0.2 µM): 0.133 | relative viability ([19]; first compound 0.002 µM): 1.01 | relative viability ([19]; first compound 0.006325 µM): 0.938 | relative viability ([19]; first compound 0.02 µM): 1.18 | relative viability ([19]; first compound 0.06325 µM): 0.728 | relative viability ([19]; first compound 0.2 µM): 0.259 | relative viability ([20]; first compound 0.002 µM): 0.75 | relative viability ([20]; first compound 0.006325 µM): 0.453 | relative viability ([20]; first compound 0.06325 µM): 0.815 | relative viability ([20]; first compound 0.2 µM): 0.108 | relative viability ([21]; first compound 0.002 µM): 1.14 | relative viability ([21]; first compound 0.006325 µM): 0.982 | relative viability ([21]; first compound 0.02 µM): 0.816 | relative viability ([21]; first compound 0.06325 µM): 0.561 | relative viability ([21]; first compound 0.2 µM): 0.169 | relative viability ([22]; first compound 0.002 µM): 0.986 | relative viability ([22]; first compound 0.006325 µM): 0.973 | relative viability ([22]; first compound 0.02 µM): 0.806 | relative viability ([22]; first compound 0.06325 µM): 0.72 | relative viability ([22]; first compound 0.2 µM): 0.181
